Test systems include COLO 205 colon; HCT-15 colon; HOP-92 NSCLC; K-562 leukemia; MALME-3M melanoma; MOLT-4 leukemia; OVCAR-3 ovarian; OVCAR-4 ovarian; RPMI-8226 leukemia; SF-295 CNS; SN12C renal; SNB-19 CNS; SNB-75 CNS; SR leukemia; TK-10 renal; UO-31 renal; DU-145 prostate; MCF7 breast; HS 578T breast; MDA-N.
What all share (assay): NCI anticancer screen, dose series, 48 h

SMILES strings stand for the structures.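 48-hour exposure; five concentrations; linearly interpolated endpoints. TGI: concentration producing complete growth inhibition.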

As for `C=CCC1(CN(C)C)CC/C(=C\c2ccc(Cl)cc2)C1=O` (stereo unspecified), the TGI was more than 59.8 µM with COLO 205 colon; 58.4 µM in the assay with HCT-15 colon; more than 100 µM in the assay with HOP-92 NSCLC; 76.3 µM in the assay with K-562 leukemia; more than 100 µM in the assay with MALME-3M melanoma; 53 µM in the assay on MOLT-4 leukemia. Further, the TGI in the assay on OVCAR-3 ovarian was more than 100 µM; in the assay on OVCAR-4 ovarian, more than 94.5 µM; in the assay on RPMI-8226 leukemia, 53.6 µM; in the assay on SF-295 CNS, more than 85.3 µM; in the assay on SN12C renal, more than 100 µM; in the assay with SNB-19 CNS, more than 100 µM. Further, the TGI was more than 90.3 µM with SNB-75 CNS, 20.3 µM in the assay on SR leukemia, more than 100 µM in the assay on TK-10 renal and more than 100 µM in the assay with UO-31 renal.

For `O=c1c2ncn(C3CCCO3)c2n(-c2ccccc2)c(=S)n1-c1ccccc1` (stereo unspecified), the TGI in the assay on COLO 205 colon, with DU-145 prostate, with HCT-15 colon, with K-562 leukemia, in the assay with MCF7 breast and with MOLT-4 leukemia was more than 100 µM throughout. In addition, the TGI in the assay on OVCAR-3 ovarian, in the assay with OVCAR-4 ovarian, in the assay with RPMI-8226 leukemia, in the assay on SF-295 CNS, with SN12C renal and in the assay with SNB-75 CNS was more than 100 µM in each case. For the same compound, the TGI with SR leukemia, in the assay on TK-10 renal and in the assay with UO-31 renal was more than 100 µM in each case.

For `C=C(Nc1nc2ccc(C)cc2s1)C(=O)C(CC)C(=O)C(CC)CC1C(=O)NC(=O)NC1=O` (stereo unspecified), the TGI in the assay on COLO 205 colon, in the assay on DU-145 prostate, with HCT-15 colon, with HOP-92 NSCLC, with HS 578T breast and in the assay on MCF7 breast was more than 100 µM each time. Moreover, the TGI with MDA-N, with MOLT-4 leukemia, with OVCAR-3 ovarian, in the assay with OVCAR-4 ovarian, with SF-295 CNS and in the assay on SN12C renal was more than 100 µM throughout. Also, the TGI in the assay on SNB-19 CNS, in the assay on SNB-75 CNS, in the assay on TK-10 renal and in the assay on UO-31 renal was more than 100 µM in each case.

For `CC1(C)OC[C@@H]([C@H](O)C2C=CC(=O)S2)O1` (stereo partly specified), the TGI with COLO 205 colon is 40.5 µM; with DU-145 prostate, 56.6 µM; in the assay on HCT-15 colon, 35.5 µM; with HOP-92 NSCLC, 58.5 µM; with K-562 leukemia, more than 100 µM; in the assay on MALME-3M melanoma it was 43.1 µM. The TGI was more than 100 µM with MCF7 breast; more than 100 µM in the assay with MDA-N; 75.2 µM in the assay on MOLT-4 leukemia; more than 100 µM with OVCAR-3 ovarian; more than 100 µM in the assay with OVCAR-4 ovarian; 53.4 µM with RPMI-8226 leukemia. Further, the TGI was more than 100 µM with SF-295 CNS; more than 100 µM with SN12C renal; more than 100 µM with SNB-19 CNS; more than 100 µM in the assay with SNB-75 CNS; more than 100 µM in the assay on TK-10 renal; 50 µM with UO-31 renal.

In the case of `COC(=O)c1nsc(OC)c1Cl`, the TGI with COLO 205 colon, in the assay on DU-145 prostate, in the assay on HCT-15 colon, in the assay on HS 578T breast, in the assay on K-562 leukemia and in the assay with MALME-3M melanoma was more than 100 µM each time. Further, the TGI in the assay on MCF7 breast, with MDA-N, with MOLT-4 leukemia, in the assay on OVCAR-3 ovarian, with OVCAR-4 ovarian and in the assay with RPMI-8226 leukemia was more than 100 µM in each case. Besides, the TGI in the assay on SF-295 CNS, with SN12C renal, in the assay on SNB-19 CNS, with SNB-75 CNS, in the assay with TK-10 renal and with UO-31 renal was more than 100 µM throughout.

`O=C1C=C(NCCOCCO)C(=O)c2c(O)ccc(O)c21`: the TGI in the assay with COLO 205 colon was 32.7 µM; in the assay with DU-145 prostate it was more than 100 µM; in the assay on HCT-15 colon, 57.1 µM; with HOP-92 NSCLC, 51.3 µM; in the assay on HS 578T breast, more than 100 µM; in the assay with K-562 leukemia, 87.4 µM. In addition, the TGI worked out at 24.2 µM with MALME-3M melanoma; 40.1 µM with MCF7 breast; 31.3 µM in the assay on MDA-N; 79.7 µM in the assay with MOLT-4 leukemia; 65.4 µM in the assay on OVCAR-3 ovarian; 33.4 µM with OVCAR-4 ovarian. Also, the TGI in the assay with RPMI-8226 leukemia was 78 µM; in the assay with SF-295 CNS, more than 100 µM; with SNB-19 CNS, more than 100 µM; in the assay with SNB-75 CNS it was more than 100 µM; in the assay on TK-10 renal, more than 100 µM; in the assay on UO-31 renal, more than 100 µM.

With `O=C1c2ccccc2C(=O)c2c1nc1ccccc1c2-c1cncc(-c2c3c(nc4ccccc24)C(=O)c2ccccc2C3=O)c1`, the TGI in the assay with COLO 205 colon is 19.8 µM; in the assay on DU-145 prostate it was 16.1 µM; in the assay with HCT-15 colon, 9.34 µM; with HOP-92 NSCLC, more than 43.7 µM; in the assay with HS 578T breast, 14.7 µM; in the assay with K-562 leukemia, more than 100 µM. For the same compound, the TGI in the assay on MALME-3M melanoma is 24.1 µM; with MCF7 breast it was 32.8 µM; with MOLT-4 leukemia, 12.2 µM; in the assay with OVCAR-3 ovarian, more than 75.6 µM; in the assay with OVCAR-4 ovarian, more than 100 µM; in the assay on RPMI-8226 leukemia, 3.51 µM. Moreover, the TGI was 22.8 µM in the assay with SF-295 CNS; 27.9 µM in the assay on SN12C renal; more than 82.7 µM with SNB-19 CNS; 21.1 µM in the assay on SNB-75 CNS; 7.9 µM in the assay on SR leukemia; more than 100 µM in the assay on TK-10 renal. In addition, in the assay on UO-31 renal, the TGI amounted to 31.8 µM.

As to `N#Cc1c(-c2ccc(Cl)cc2)c(C#N)c(=O)n(NS(=O)(=O)c2ccccc2)c1O`, the TGI is more than 100 µM in the assay on COLO 205 colon; 62.3 µM in the assay with HCT-15 colon; 71.1 µM in the assay on HOP-92 NSCLC; 63.9 µM in the assay with HS 578T breast; more than 100 µM in the assay with K-562 leukemia; more than 100 µM in the assay on MALME-3M melanoma. Also, the TGI is 42.9 µM in the assay with MCF7 breast; more than 100 µM with MDA-N; 71.2 µM with MOLT-4 leukemia; more than 100 µM in the assay with OVCAR-4 ovarian; 26.2 µM in the assay on RPMI-8226 leukemia; more than 100 µM in the assay on SF-295 CNS. The TGI in the assay with SN12C renal, with SNB-19 CNS, with SNB-75 CNS and with TK-10 renal was more than 100 µM each time.

The record behind these values is PubChem BioAssay (NCI).
